Measured values: patent US20230022400A1, “IMMUNOMODULATORS” (Bristol-Myers Squibb Company, priority 2019, published 2023)
Where a SMILES comes first, the peptide text is derived from it. Bridges are numbered along the chain shown (N, C = ends). [ ]: non-standard residue; d: D form. The star is where a group is joined. Trp(1-CH2COOH) = N[C@@H](Cc1cn(CC(=O)O)c2ccccc12)C(=O)O; Hyp = O=C(O)[C@@H]1C[C@@H](O)CN1; X16 = c1ccc2c(c1)sc1c(*)ncnc12; X2 = CSc1nc(*)c2sc3ccccc3c2n1; X5 = c1ccc2c(c1)oc1c(*)ncnc12; NMeNle = CCCC[C@H](NC)C(=O)O; X4 = c1nc(*)c2c3c(sc2n1)CCC3; NMeA = CN[C@@H](C)C(=O)O; Dab = NCC[C@H](N)C(=O)O; Dap = NC[C@H](N)C(=O)O; X9 = Fc1cccc2sc(*)nc12; X1 = c1ccc2sc(*)nc2c1; X12 = Brc1cnc(*)nc1; X15 = c1cnc(*)cn1

Biological target: T1, PD-1/PD-L1 interaction (PD-1-Ig / PD-L1-His) (Homo sapiens, UniProt Q9NZQ7)
T1 construct: TVMV protease site (linker) (C); made in house; host or cells: HEK293T cells
T1 sequence (Q9NZQ7 18-239): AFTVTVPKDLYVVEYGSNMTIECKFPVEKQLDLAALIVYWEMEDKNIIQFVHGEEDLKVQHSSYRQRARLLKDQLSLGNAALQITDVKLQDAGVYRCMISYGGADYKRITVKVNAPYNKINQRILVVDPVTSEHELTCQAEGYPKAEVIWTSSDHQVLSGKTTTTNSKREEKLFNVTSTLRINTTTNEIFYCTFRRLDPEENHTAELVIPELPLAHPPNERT
Assay: PD-1/PD-L1 Homogenous Time-Resolved Fluorescence (HTRF) binding assay
Details: PD-L1-His 10 nM final, PD-1-Ig 20 nM final; inhibitors pre-incubated with PD-L1-His for 15 m
Text: The ability of the compounds of formula (I) to bind to PD-L1 was investigated using a PD-1/PD-L1 Homogenous Time-Resolved Fluorescence (HTRF) binding assay.
The interaction of PD-1 and PD-L1 can be assessed using soluble, purified preparations of the extracellular domains of the two proteins. The PD-1 and PD-L1 protein extracellular domains were expressed as fusion proteins with detection tags, for PD-1, the tag was the Fc portion of Immunoglobulin (PD-1-Ig) and for PD-L1 it was the 6 histidine motif (PD-L1-His). All binding studies were performed in an HTRF assay buffer consisting of dPBS supplemented with 0.1% […] bovine serum albumin and 0.05% (v/v) Tween-20. For the h/PD-L1-His binding assay, inhibitors were pre-incubated with PD-L1-His (10 nM final) for 15 m in 4 μl of assay buffer, followed by addition of PD-1-Ig (20 nM final) in 1 μl of assay buffer and further incubation for 15 m. HTRF detection was achieved using europium crypate-labeled anti-Ig (1 nM final) and allophycocyanin (APC) labeled anti-His (20 nM final). Antibodies were diluted in HTRF detection buffer and 5 μl was dispensed on top of the binding reaction. The reaction mixture was allowed to equilibrate for 30 minutes and the resulting signal (665 nm/620 nm ratio) was obtained using an EnVision fluorometer. Additional binding assays were established between the human proteins PD-1-Ig/PD-L2-His (20 & 5 nM, respectively) and CD80-His/PD-L1-Ig (100 & 10 nM, respectively).
Recombinant Proteins: Human PD-1 (25-167) with a C-terminal human Fc domain of immunoglobulin G (Ig) epitope tag [hPD-1 (25-167)-3S-IG] and human PD-L1 (18-239) with a C-terminal His epitope tag [hPD-L1(18-239)-TVMV-His] were expressed in HEK293T cells and purified sequentially by ProteinA affinity chromatography and size exclusion chromatography. Human PD-L2-His and CD80-His was obtained through commercial sources.
Table 1 lists the IC50 values for representative examples of this disclosure measured in the PD-1/PD-L1 Homogenous Time-Resolved Fluorescence (HTRF) binding assay.

Compound	IC50
CCCC[C@H]1C(=O)N(C)[C@@H](CCCC)C(=O)N[C@@H](CC(C)C)C(=O)N[C@H](C(=O)NCC(N)=O)CSCC(=O)N[C@@H](Cc2ccc(O)cc2)C(=O)N(C)[C@@H](C)C(=O)N[C@@H](CC(N)=O)C(=O)N2CCC[C@H]2C(=O)N[C@@H](CNc2ncnc3c2sc2ccccc23)C(=O)N[C@@H](CC(C)C)C(=O)N2C[C@H](O)C[C@H]2C(=O)N[C@@H](Cc2c[nH]c3ccccc23)C(=O)N[C@@H](CCNc2ncnc3c2sc2ccccc23)C(=O)N[C@@H](Cc2cn(CC(=O)O)c3ccccc23)C(=O)N1C [Compound 21014] ({CH2CO}-Y[NMeA]NP[Dap](X16)L[Hyp]W[Dab](X16)[Trp(1-CH2COOH)][NMeNle][NMeNle]LCG-NH2; thioether N-14)	5.7 nM
CCCC[C@H]1C(=O)N(C)[C@@H](CCCC)C(=O)N[C@@H](CC(C)C)C(=O)N[C@H](C(=O)NCC(N)=O)CSCC(=O)N[C@@H](Cc2ccc(O)cc2)C(=O)N(C)[C@@H](C)C(=O)N[C@@H](CC(N)=O)C(=O)N2CCC[C@H]2C(=O)N[C@@H](CNc2ncnc3sc4c(c23)CCC4)C(=O)N[C@@H](CC(C)C)C(=O)N2C[C@H](O)C[C@H]2C(=O)N[C@@H](Cc2c[nH]c3ccccc23)C(=O)N[C@@H](CCNc2ncnc3sc4c(c23)CCC4)C(=O)N[C@@H](Cc2cn(CC(=O)O)c3ccccc23)C(=O)N1C [Compound 21012] ({CH2CO}-Y[NMeA]NP[Dap](X4)L[Hyp]W[Dab](X4)[Trp(1-CH2COOH)][NMeNle][NMeNle]LCG-NH2; thioether N-14)	14 nM
CCCC[C@H]1C(=O)N(C)[C@@H](CCCC)C(=O)N[C@@H](CC(C)C)C(=O)N[C@H](C(=O)NCC(N)=O)CSCC(=O)N[C@@H](Cc2ccc(O)cc2)C(=O)N(C)[C@@H](C)C(=O)N[C@@H](CC(N)=O)C(=O)N2CCC[C@H]2C(=O)N[C@@H](CNc2ncc(Br)cn2)C(=O)N[C@@H](CC(C)C)C(=O)N2C[C@H](O)C[C@H]2C(=O)N[C@@H](Cc2c[nH]c3ccccc23)C(=O)N[C@@H](CCNc2ncc(Br)cn2)C(=O)N[C@@H](Cc2cn(CC(=O)O)c3ccccc23)C(=O)N1C [Compound 1010] ({CH2CO}-Y[NMeA]NP[Dap](X12)L[Hyp]W[Dab](X12)[Trp(1-CH2COOH)][NMeNle][NMeNle]LCG-NH2; thioether N-14)	4.9 nM
CCCC[C@H]1C(=O)N(C)[C@@H](CCCC)C(=O)N[C@@H](CC(C)C)C(=O)N[C@H](C(=O)NCC(N)=O)CSCC(=O)N[C@@H](Cc2ccc(O)cc2)C(=O)N(C)[C@@H](C)C(=O)N[C@@H](CC(N)=O)C(=O)N2CCC[C@H]2C(=O)N[C@@H](CNc2nc3c(F)cccc3s2)C(=O)N[C@@H](CC(C)C)C(=O)N2C[C@H](O)C[C@H]2C(=O)N[C@@H](Cc2c[nH]c3ccccc23)C(=O)N[C@@H](CCNc2nc3c(F)cccc3s2)C(=O)N[C@@H](Cc2cn(CC(=O)O)c3ccccc23)C(=O)N1C [Compound 11007] ({CH2CO}-Y[NMeA]NP[Dap](X9)L[Hyp]W[Dab](X9)[Trp(1-CH2COOH)][NMeNle][NMeNle]LCG-NH2; thioether N-14)	4 nM
CCCC[C@H]1C(=O)N(C)[C@@H](CCCC)C(=O)N[C@@H](CC(C)C)C(=O)N[C@H](C(=O)NCC(N)=O)CSCC(=O)N[C@@H](Cc2ccc(O)cc2)C(=O)N(C)[C@@H](C)C(=O)N[C@@H](CC(N)=O)C(=O)N2CCC[C@H]2C(=O)N[C@@H](CNc2nc(SC)nc3c2sc2ccccc23)C(=O)N[C@@H](CC(C)C)C(=O)N2C[C@H](O)C[C@H]2C(=O)N[C@@H](Cc2c[nH]c3ccccc23)C(=O)N[C@@H](CCN)C(=O)N[C@@H](Cc2cn(CC(=O)O)c3ccccc23)C(=O)N1C [Compound 21008] ({CH2CO}-Y[NMeA]NP[Dap](X2)L[Hyp]W[Dab][Trp(1-CH2COOH)][NMeNle][NMeNle]LCG-NH2; thioether N-14)	6.5 nM
CCCC[C@H]1C(=O)N(C)[C@@H](CCCC)C(=O)N[C@@H](CC(C)C)C(=O)N[C@H](C(=O)NCC(N)=O)CSCC(=O)N[C@@H](Cc2ccc(O)cc2)C(=O)N(C)[C@@H](C)C(=O)N[C@@H](CC(N)=O)C(=O)N2CCC[C@H]2C(=O)N[C@@H](CNc2ncnc3c2oc2ccccc23)C(=O)N[C@@H](CC(C)C)C(=O)N2C[C@H](O)C[C@H]2C(=O)N[C@@H](Cc2c[nH]c3ccccc23)C(=O)N[C@@H](CCNc2ncnc3c2oc2ccccc23)C(=O)N[C@@H](Cc2cn(CC(=O)O)c3ccccc23)C(=O)N1C [Compound 21010] ({CH2CO}-Y[NMeA]NP[Dap](X5)L[Hyp]W[Dab](X5)[Trp(1-CH2COOH)][NMeNle][NMeNle]LCG-NH2; thioether N-14)	3.9 nM
CCCC[C@H]1C(=O)N(C)[C@@H](CCCC)C(=O)N[C@@H](CC(C)C)C(=O)N[C@H](C(=O)NCC(N)=O)CSCC(=O)N[C@@H](Cc2ccc(O)cc2)C(=O)N(C)[C@@H](C)C(=O)N[C@@H](CC(N)=O)C(=O)N2CCC[C@H]2C(=O)N[C@@H](CNc2nc3ccccc3s2)C(=O)N[C@@H](CC(C)C)C(=O)N2C[C@H](O)C[C@H]2C(=O)N[C@@H](Cc2c[nH]c3ccccc23)C(=O)N[C@@H](CCN)C(=O)N[C@@H](Cc2cn(CC(=O)O)c3ccccc23)C(=O)N1C [Compound 11012] ({CH2CO}-Y[NMeA]NP[Dap](X1)L[Hyp]W[Dab][Trp(1-CH2COOH)][NMeNle][NMeNle]LCG-NH2; thioether N-14)	7.9 nM
CCCC[C@H]1C(=O)N(C)[C@@H](CCCC)C(=O)N[C@@H](CC(C)C)C(=O)N[C@H](C(=O)NCC(N)=O)CSCC(=O)N[C@@H](Cc2ccc(O)cc2)C(=O)N(C)[C@@H](C)C(=O)N[C@@H](CC(N)=O)C(=O)N2CCC[C@H]2C(=O)N[C@@H](CNc2cnccn2)C(=O)N[C@@H](CC(C)C)C(=O)N2C[C@H](O)C[C@H]2C(=O)N[C@@H](Cc2c[nH]c3ccccc23)C(=O)N[C@@H](CCNc2cnccn2)C(=O)N[C@@H](Cc2cn(CC(=O)O)c3ccccc23)C(=O)N1C [Compound 1004] ({CH2CO}-Y[NMeA]NP[Dap](X15)L[Hyp]W[Dab](X15)[Trp(1-CH2COOH)][NMeNle][NMeNle]LCG-NH2; thioether N-14)	5.1 nM
CCCC[C@H]1C(=O)N(C)[C@@H](CCCC)C(=O)N[C@@H](CC(C)C)C(=O)N[C@H](C(=O)NCC(N)=O)CSCC(=O)N[C@@H](Cc2ccc(O)cc2)C(=O)N(C)[C@@H](C)C(=O)N[C@@H](CC(N)=O)C(=O)N2CCC[C@H]2C(=O)N[C@@H](CNc2ncnc3c2oc2ccccc23)C(=O)N[C@@H](CC(C)C)C(=O)N2C[C@H](O)C[C@H]2C(=O)N[C@@H](Cc2c[nH]c3ccccc23)C(=O)N[C@@H](CCN)C(=O)N[C@@H](Cc2cn(CC(=O)O)c3ccccc23)C(=O)N1C [Compound 21013] ({CH2CO}-Y[NMeA]NP[Dap](X5)L[Hyp]W[Dab][Trp(1-CH2COOH)][NMeNle][NMeNle]LCG-NH2; thioether N-14)	3.4 nM
